Molecules are shown by their SMILES. Some results are limits rather than exact numbers.

Series [1] addresses Core antigen (Hepatitis B virus) (UniProt Q03732). Kind of series: Inhibition of capsid protein in Hepatitis B virus infected in human HepG2.2.15 cells assessed as reduction in viral DNA level supplemented with fresh medium containing compound every 2 days and measured after 6 days by RT-PCR analysis relative to control. In kind it is cell-based. More on the design: concentration or dose not given beside the values. The settings on record: concentration not given here.

Series [2] can be described thus: Cytotoxicity against human HepG2.2.15 cells assessed as cell viability measured after 72 hrs by MTT assay. In kind it is cell-based, HepG2 2.2.15.
For series [3], the target named is Core antigen (Hepatitis B virus) (UniProt Q03732). Put plainly: Inhibition of capsid protein in wild type Hepatitis B virus infected in human HepG2.2.15 cells assessed as reduction of viral DNA level at 4 uM measured after 72 hrs by PCR analysis relative to control. In kind it is cell-based.
The target is the same in series [4]. Put plainly: Inhibition of capsid protein in lamivudine/entecavir-resistant Hepatitis B virus harboring rtL180M/rtM204V/rt184L mutant infected in human HepG2.2.15 cells assessed as reduction in viral DNA level at 4 uM measured after 72 hrs by PCR analysis relative to control. In kind it is cell-based.
Series [5] can be described thus: Selectivity index, ratio of CC50 for human HepG2.2.15 cells to IC50 for capsid protein in Hepatitis B virus infected in human HepG2.2.15 cells assessed as reduction in viral DNA level. It is filed as toxicity, cell-based. The settings on record: read-out: Ratio CC50/IC50.
Series [6] can be described thus: Selectivity index, ratio of CC50 for human HepG2.2.15 cells to IC50 for capsid protein in lamivudine/entecavir-resistant Hepatitis B virus harboring rtL180M/rtM204V/rt184L mutant infected in human HepG2.2.15 cells assessed as reduction in viral DNA level. In kind it is toxicity, cell-based. The settings on record: read-out: Ratio CC50/IC50.
For series [7], the target named is Core antigen (Hepatitis B virus) (UniProt Q03732). Kind of series: Inhibition of capsid protein in lamivudine/entecavir-resistant Hepatitis B virus harboring rtL180M/rtM204V/rt184L mutant infected in human HepG2.2.15 cells assessed as reduction in viral DNA level at 100 uM measured after 72 hrs by PCR analysis relative to control. In kind it is cell-based.
The target is the same in series [8]. Put plainly: Inhibition of capsid protein in wild type Hepatitis B virus infected in human HepG2.2.15 cells assessed as reduction in viral DNA level at 100 uM measured after 72 hrs by PCR analysis relative to control. In kind it is cell-based.
The target is the same in series [9]. Kind of series: Inhibition of capsid protein in wild type Hepatitis B virus infected in human HepG2.2.15 cells assessed as reduction of viral DNA level at 10 uM measured after 72 hrs by PCR analysis relative to control. In kind it is cell-based.
Series [10] has the same target. Put plainly: Inhibition of capsid protein in lamivudine/entecavir-resistant Hepatitis B virus harboring rtL180M/rtM204V/rt184L mutant infected in human HepG2.2.15 cells assessed as reduction in viral DNA level at 10 uM measured after 72 hrs by PCR analysis relative to control. In kind it is cell-based.

Sequence of Core antigen (Hepatitis B virus) (Q03732 as listed by the source): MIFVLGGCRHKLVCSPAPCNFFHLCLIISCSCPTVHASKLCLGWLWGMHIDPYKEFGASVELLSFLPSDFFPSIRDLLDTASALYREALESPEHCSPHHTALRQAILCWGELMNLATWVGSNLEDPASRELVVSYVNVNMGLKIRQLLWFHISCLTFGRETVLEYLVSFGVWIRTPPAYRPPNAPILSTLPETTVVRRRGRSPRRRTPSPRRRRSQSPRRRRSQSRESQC

For `COc1ccc(C(C)=O)cc1CSc1nc2ccc(I)cc2c(=O)n1Cc1cccs1`, the inhibition in series [1] is 45.4%. Moreover, the cytotoxic concentration (CC50) at 72 h in [2] amounted to 81.1 µM.

As for `CCN(CC)CCOc1ccc2nc(SCc3ccccc3)n(Cc3cccs3)c(=O)c2c1`, the inhibition was determined as 96.1% in [3], 94% in [4] and 98.4% in series [1]. Also, the selectivity ratio in series [5] amounted to 22.2; in series [6], 21.4. Besides, the CC50 at 72 h in series [2] lay within 15.8 to 18 µM.

Regarding `COc1ccc(C(C)=O)cc1CSc1nc2ccc(F)cc2c(=O)n1Cc1cccs1`, the inhibition in series [1] was determined as 30.7%. Also, the 50% cytotoxic concentration (CC50) at 72 h in series [2] is 89 µM.

Consider `COc1ccccc1CSc1nc2ccc(Br)cc2c(=O)n1Cc1cccs1`, for which, in [1], the inhibition was 64.2%. In [2], the CC50 at 72 h is over 100 µM.

As for `COc1ccccc1CSc1nc2ccc(C)cc2c(=O)n1Cc1cccs1`, in series [1], the inhibition worked out at 69.4%. Besides, in series [2], the CC50 at 72 h is over 100 µM.

As for `CCN(CC)CCOc1ccc2nc(SCc3cc(C(C)=O)ccc3OC)n(Cc3cccs3)c(=O)c2c1`, the inhibition in [1] worked out at 42%. Also, the CC50 at 72 h in [2] was 8.76 µM.

Take `CCN(CC)CCOc1ccc2nc(SCc3ccccc3OC)n(Cc3cccs3)c(=O)c2c1`: in series [1], the inhibition was 76%. Further, the selectivity ratio in series [5] was found to be 5.25. Moreover, in series [2], the CC50 at 72 h stood at 10.1 µM.

`COc1ccc(C(C)=O)cc1CSc1nc2ccc(Br)cc2c(=O)n1Cc1cccs1`: the inhibition in series [1] is 46%. Moreover, the CC50 at 72 h in [2] is over 100 µM.

With `COc1ccccc1CSc1nc2ccc(I)cc2c(=O)n1Cc1cccs1`, the inhibition in series [1] was found to be 65.9%. In addition, the CC50 at 72 h in series [2] was over 100 µM.

As for `COc1ccc(C(C)=O)cc1CSc1nc2ccc(C)cc2c(=O)n1Cc1cccs1`, in series [1], the inhibition came out at 56.1%. Further, the CC50 at 72 h in [2] is over 100 µM.

With `COc1ccc(C(C)=O)cc1CSc1nc2ccc(OCCN(C)C)cc2c(=O)n1Cc1cccs1`, the inhibition in series [1] turned out to be 33.9%. The CC50 at 72 h in series [2] is 18 µM.

Turning to `COc1ccc(C(C)=O)cc1CSc1nc2ccccc2c(=O)n1Cc1cccs1`, in series [1], the inhibition came to 47.1%. Moreover, the selectivity ratio in series [5] amounted to 17.6. Further, in series [2], the CC50 at 72 h was found to be 71.5 µM.

As for `COc1ccccc1CSc1nc2ccc(F)cc2c(=O)n1Cc1cccs1`, in series [1], the inhibition is 79.6%. For the same molecule, the selectivity ratio in [5] is over 40.5. Moreover, the CC50 at 72 h in series [2] is over 100 µM.

As for `O=c1c2cc(O)ccc2nc(SCc2ccccc2)n1Cc1cccs1`, the inhibition in series [1] was found to be 5.62%. In series [2], the CC50 at 72 h was over 100 µM.

As to `COc1ccc(C(C)=O)cc1CSc1nc2ccc(O)cc2c(=O)n1Cc1cccs1`, in series [1], the inhibition is 3.26%. The CC50 at 72 h in series [2] was over 100 µM.

Turning to `O=c1c2cc(F)ccc2nc(SCc2ccccc2)n1Cc1cccs1`, the inhibition in series [1] amounted to 9.53%. Also, the CC50 at 72 h in [2] is over 100 µM.

Turning to `O=c1c2cc(I)ccc2nc(SCc2ccccc2)n1Cc1cccs1`, in series [1], the inhibition was found to be 1.87%. Moreover, in series [2], the CC50 at 72 h was over 100 µM.

Take `Nc1ccn([C@@H]2CS[C@H](CO)O2)c(=O)n1` [LAMIVUDINE]: the inhibition in series [7] is 17.7%; in [8], 90.7%; in series [1], 94.3%. For the same molecule, the selectivity ratio in series [5] is over 1000; in series [6], under 1. Moreover, the CC50 at 72 h in [2] is over 100 µM.

In the case of `Cc1ccc2nc(SCc3ccccc3)n(Cc3cccs3)c(=O)c2c1`, the inhibition in series [1] was determined as 13.8%. Moreover, in [2], the CC50 at 72 h was over 100 µM.

With `O=c1c2cc(Cl)ccc2nc(SCc2ccccc2)n1Cc1cccs1`, the inhibition in [1] was 16.1%. Further, the CC50 at 72 h in [2] is over 100 µM.

Consider `O=c1c2cc(Br)ccc2nc(SCc2ccccc2)n1Cc1cccs1`, for which the inhibition in [1] was 16.7%. Moreover, the CC50 at 72 h in series [2] was over 100 µM.

`COc1ccccc1CSc1nc2ccc(O)cc2c(=O)n1Cc1cccs1`: the inhibition in [1] is 0.59%. For the same molecule, the cytotoxic concentration (CC50) at 72 h in [2] was over 100 µM.

On to `O=c1c2ccccc2nc(SCc2ccccc2)n1Cc1cccs1`, for which, in series [1], the inhibition is 11%. The CC50 at 72 h in [2] is over 100 µM.

`C=C1[C@H](CO)[C@@H](O)C[C@@H]1n1cnc2c(=O)[nH]c(N)nc21`: the inhibition in series [9] turned out to be 98.1%; in series [10], 22.6%.

Take `COc1ccccc1CSc1nc2ccc(OCCN(C)C)cc2c(=O)n1Cc1cccs1`: in series [1], the inhibition is 53.9%. The CC50 at 72 h in [2] came out at 14.7 µM.

Consider `COc1ccc(C(C)=O)cc1CSc1nc2ccc(Cl)cc2c(=O)n1Cc1cccs1`, for which the inhibition in series [1] is 40.7%. Further, the CC50 at 72 h in [2] was found to be 74.6 µM.

As to `COc1ccccc1CSc1nc2ccc(Cl)cc2c(=O)n1Cc1cccs1`, the inhibition in [1] came to 63.3%. For the same molecule, the CC50 at 72 h in [2] is over 100 µM.

Turning to `COc1ccccc1CSc1nc2ccccc2c(=O)n1Cc1cccs1`, the inhibition in [1] came out at 76.3%. In addition, the selectivity ratio in [5] was over 35.6. Besides, in series [2], the CC50 at 72 h was over 100 µM.

Turning to `CN(C)CCOc1ccc2nc(SCc3ccccc3)n(Cc3cccs3)c(=O)c2c1`, the inhibition in series [3] worked out at 82%; in series [4], 80.9%; in [1], 83.3%. Further, the selectivity ratio in series [5] was 13.7; in series [6], 14.1. For the same molecule, the CC50 at 72 h in [2] fell in the range of 21.1 to 26.7 µM.

(Values after ChEMBL document CHEMBL4350975, “Assessment of quinazolinone derivatives as novel non-nucleoside hepatitis B virus inhibitors” (Eur J Med Chem, 2019).)
